Test results reported in the NIST ThermoML archive (doi:10.1021/acs.jced.8b00662).

Columns and labels:
[1] = 100 kPa, Liquid; for viscosity: Falling or rolling sphere viscometry; for mass density: Vibrating tube method
[2] = xn = mol fraction of the nth substance listed; conditions: 100 kPa, Liquid; for viscosity: Falling or rolling sphere viscometry; for mass density: Vibrating tube method

c1ccc2c(c1)CCCC2 [1,2,3,4-tetrahydronaphthalene]
[1]
Conditions	mass density [kg/m3]	viscosity [mPa·s]
293.15 K	968.89	2.233
298.15 K	964.92	2.019
303.15 K	960.96	1.838
308.15 K	956.99	1.681
313.15 K	953.03	1.546
318.15 K	949.05	1.428
323.15 K	945.1	1.324
328.15 K	941.13	1.233
333.15 K	937.17	1.151
338.15 K	933.19	1.079
343.15 K	929.2	1.013

c1ccc2c(c1)CCCC2 [1,2,3,4-tetrahydronaphthalene] + CC(C)C1CCCCC1
[2], x1 = 1
Conditions	mass density [kg/m3]	viscosity [mPa·s]
293.15 K	968.89	2.233
298.15 K	964.92	2.019
303.15 K	960.96	1.838
308.15 K	956.99	1.681
313.15 K	953.03	1.546
318.15 K	949.05	1.428
323.15 K	945.1	1.324
328.15 K	941.13	1.233
333.15 K	937.17	1.151
338.15 K	933.19	1.079
343.15 K	929.2	1.013

c1ccc2c(c1)CCCC2 [1,2,3,4-tetrahydronaphthalene] + OCC1CC1
[2], x1 = 1
Conditions	mass density [kg/m3]	viscosity [mPa·s]
293.15 K	968.89	2.233
298.15 K	964.92	2.019
303.15 K	960.96	1.838
308.15 K	956.99	1.681
313.15 K	953.03	1.546
318.15 K	949.05	1.428
323.15 K	945.1	1.324
328.15 K	941.13	1.233
333.15 K	937.17	1.151
338.15 K	933.19	1.079
343.15 K	929.2	1.013

CC(C)C1CCCCC1 [(1-methylethyl)cyclohexane]
[1]
Conditions	mass density [kg/m3]	viscosity [mPa·s]
293.15 K	802.14	1.093
298.15 K	798.24	1.016
303.15 K	794.34	0.947
308.15 K	790.43	0.886
313.15 K	786.51	0.831
318.15 K	782.59	0.782
323.15 K	778.66	0.738
328.15 K	774.72	0.698
333.15 K	770.77	0.661
338.15 K	766.81	0.628
343.15 K	762.84	0.598

OCC1CC1 [cyclopropylmethanol]
[1]
Conditions	mass density [kg/m3]	viscosity [mPa·s]
293.15 K	913.02	3.988
298.15 K	908.96	3.455
303.15 K	904.87	3.009
308.15 K	900.74	2.635
313.15 K	896.59	2.321
318.15 K	892.38	2.054
323.15 K	888.17	1.825
328.15 K	883.86	1.629
333.15 K	879.52	1.46
338.15 K	875.1	1.316
343.15 K	870.62	1.19

OCC1CC1 [cyclopropylmethanol] + CC(C)C1CCCCC1
[2], x2 = 0
Conditions	mass density [kg/m3]	viscosity [mPa·s]
293.15 K	913.02	3.988
298.15 K	908.96	3.455
303.15 K	904.87	3.008
308.15 K	900.74	2.635
313.15 K	896.59	2.321
318.15 K	892.38	2.054
323.15 K	888.17	1.825
328.15 K	883.86	1.629
333.15 K	879.52	1.46
338.15 K	875.1	1.317
343.15 K	870.62	1.19
